These results are taken from patent publication US20100185419A1, “ALGORITHM FOR DESIGNING IRREVERSIBLE INHIBITORS” (Avila Therapeutics, Inc., priority 2008, published 2010).

The target in one assay is T1, cKIT in GIST882 cells (Homo sapiens, UniProt P10721, K642E).
T1 construct: endogenous in cells; host or cells: GIST882 cells
Briefly: GIST882 cellular assay with washout (western blot). Type of assay: cell-based. The note with it: for cKIT autophosphorylation / downstream signaling of ERK: 1 micromolar. How it is done: GIST882 cells were seeded in a 6 well plate at a density of 8×10^5 cells/well in complete media. The next day cells were treated with 1 uM compound diluted in complete media for 90 minutes. After 90 minutes, the media was removed and cells were washed with compound-free media. Cells were washed every 2 hours and resuspended in fresh compound-free media.
(A western blot detects proteins with antibodies after separation by electrophoresis.)

The target of another assay is T2, Btk (Homo sapiens, UniProt Q06187).
T2 construct: purchased Invitrogen
T2 sequence (Q06187 whole entry): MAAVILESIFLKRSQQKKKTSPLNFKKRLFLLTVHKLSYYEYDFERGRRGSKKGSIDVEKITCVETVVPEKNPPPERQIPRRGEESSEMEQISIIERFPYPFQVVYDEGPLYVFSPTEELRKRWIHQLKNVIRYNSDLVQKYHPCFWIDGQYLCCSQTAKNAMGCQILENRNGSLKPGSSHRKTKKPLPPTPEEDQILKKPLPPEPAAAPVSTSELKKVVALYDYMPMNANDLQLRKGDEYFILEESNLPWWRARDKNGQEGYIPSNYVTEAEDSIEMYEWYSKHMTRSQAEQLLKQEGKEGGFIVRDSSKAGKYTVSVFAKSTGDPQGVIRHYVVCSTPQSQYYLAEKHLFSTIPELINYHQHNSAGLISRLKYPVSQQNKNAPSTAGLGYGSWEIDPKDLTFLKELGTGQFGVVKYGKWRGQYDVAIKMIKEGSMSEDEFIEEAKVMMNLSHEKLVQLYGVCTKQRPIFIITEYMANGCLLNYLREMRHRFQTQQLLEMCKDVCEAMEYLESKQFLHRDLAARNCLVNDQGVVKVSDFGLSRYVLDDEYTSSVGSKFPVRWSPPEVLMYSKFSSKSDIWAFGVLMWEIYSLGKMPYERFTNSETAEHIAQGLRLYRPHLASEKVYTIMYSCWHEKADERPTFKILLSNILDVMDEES
Description: Omnia assay for potency against Btk. The note with it: biochemical assay; read-out: IC50 Btk kinase. As for the experimental part: The protocol below describes continuous-read kinase assays to measure inherent potency of compounds against active forms of Btk enzyme. The mechanics of the assay platform are best described by the vendor (Invitrogen, Carlsbad, Calif.) on the world wide web at invitrogen.com/site/us/en/home/Products-and-Services/Applications/Drug-Discovery/Target-and-Lead-Identification-and-Validation/KinaseBiology/KB-Misc/Biochemical-Assays/Omnia-Kinase-Assays.html. Briefly, 10× stocks of 5 nM Btk from Invitrogen, 1.13×40 μM ATP (AS001A) and 10 μM (ATP KMapp ˜[…]) Tyr-Sox conjugated peptide substrates (KCZ 1001) were prepared in 1× kinase reaction buffer consisting of 20 mM Tris, pH 7.5, 5 mM MgCl2, 1 mM EGTA, 5 mM β-glycerophosphate, 5% glycerol (10× stock, KBOO2A) and 0.2 mM DTT (DS001A).

The next assay deals with CSF1R (FMS) (Homo sapiens, UniProt P07333). Description: CSF1R inhibition assay (Z'-LYTE). The note with it: read-out: % inhibition of CSF1R. Type of assay: biochemical. As for the experimental part: Compounds were assayed as inhibitors of […] in a manner substantially similar to the method described by Invitrogen Corp (Invitrogen Corporation, 1600 Faraday Avenue, Carlsbad, Calif., CA) using the […] biochemical assay procedure or similar biochemical assay. The 2×CSF1R (FMS)/[…] Peptide Mixture was prepared in 50 mM HEPES pH 7.5, 0.01% BRIJ-35, 10 mM MgCl2, 1 mM EGTA. The final […] Kinase Reaction consisted of 0.2-67.3 ng CSF1R (FMS) and 2 μM […] Peptide in 50 mM HEPES pH 7.5, 0.01% BRIJ-35, 10 mM MgCl2, 1 mM EGTA. After the 1 hour Kinase Reaction incubation, 5 μL of a 1:128 dilution of Development Reagent B was added.
Sequence of CSF1R (FMS) (P07333 20-972): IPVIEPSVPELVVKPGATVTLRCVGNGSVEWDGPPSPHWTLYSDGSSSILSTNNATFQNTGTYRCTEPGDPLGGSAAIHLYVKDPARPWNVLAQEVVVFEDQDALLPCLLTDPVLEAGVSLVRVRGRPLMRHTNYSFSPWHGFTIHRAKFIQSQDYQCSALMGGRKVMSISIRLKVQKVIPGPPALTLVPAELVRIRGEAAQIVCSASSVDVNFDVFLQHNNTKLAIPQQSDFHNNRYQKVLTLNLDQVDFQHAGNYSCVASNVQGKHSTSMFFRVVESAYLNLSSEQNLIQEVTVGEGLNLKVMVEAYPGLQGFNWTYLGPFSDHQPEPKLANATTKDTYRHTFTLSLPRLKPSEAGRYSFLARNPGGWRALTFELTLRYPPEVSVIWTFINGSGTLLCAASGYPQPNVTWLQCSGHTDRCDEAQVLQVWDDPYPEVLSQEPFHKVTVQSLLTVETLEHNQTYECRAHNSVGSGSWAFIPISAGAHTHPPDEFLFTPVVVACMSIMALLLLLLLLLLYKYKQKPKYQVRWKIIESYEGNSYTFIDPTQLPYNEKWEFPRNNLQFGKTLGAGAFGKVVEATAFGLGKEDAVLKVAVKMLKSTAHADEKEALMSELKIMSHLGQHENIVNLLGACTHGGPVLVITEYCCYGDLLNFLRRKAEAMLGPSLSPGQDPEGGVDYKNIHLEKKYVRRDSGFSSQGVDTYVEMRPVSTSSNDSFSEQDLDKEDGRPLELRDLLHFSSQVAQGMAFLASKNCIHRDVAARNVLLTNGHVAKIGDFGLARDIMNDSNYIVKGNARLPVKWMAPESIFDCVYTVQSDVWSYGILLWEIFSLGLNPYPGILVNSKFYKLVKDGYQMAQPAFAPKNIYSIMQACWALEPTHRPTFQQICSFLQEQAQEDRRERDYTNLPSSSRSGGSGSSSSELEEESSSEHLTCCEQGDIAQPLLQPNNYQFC

Assay [1] concerns the target T3, c-KIT (Homo sapiens, UniProt P10721). Description: cKIT inhibition assay (electrophoretic mobility shift). Type of assay: biochemical. Further details: purchased Millipore 14-559. How it is done: The reaction was started by adding the ATP and incubating for 1 hour at room temperature. […] Phosphorylated and unphosphorylated substrate was separated by charge using electrophoretic mobility shift.

Assay [2] has as its target T3, c-KIT. Briefly: c-KIT mass spectral analysis of tryptic digest. Type of assay: binding. The note with it: 3 hours at 10× excess, tryptic digest MALDI-TOF. As for the experimental part:
Iodoacetamide was used as the alkylating agent after compound incubation. For tryptic digests a 5 μl aliquot (14 pmols) was diluted with 10 ul of 0.1% TFA prior to micro C18 Zip Tipping directly onto the MALDI target using alpha cyano-4-hydroxy cinnamic acid as the matrix (5 mg/ml in 0.1% TFA:acetonitrile 50:50).
The tryptic digest was analyzed by mass spectrometer (MALDI-TOF).
Iodoacetamide was used as the alkylating agent after compound incubation. […] For tryptic digests a 2 μl aliquot (3.3 pmols) was diluted with 10 μl of 0.1% TFA prior to micro C18 Zip Tipping directly onto the MALDI target using alpha cyano-4-hydroxy cinnamic acid as the matrix (5 mg/ml in 0.1% TFA:Acetonitrile 50:50).
For tryptic digests the instrument was set in Reflectron mode with a pulsed extraction setting of 2200. […] Calibration for fragments was done using the P14R fragmentation calibration for the Curved field Reflectron.

For assay [3], the target named is HCV NS3/4A 1b protease WT (Hepatitis C virus genotype 1b, UniProt P26662). Briefly: HCV Protease FRET Assay for wild type NS3/4A 1b enzyme (IC50). Type of assay: biochemical. The note with it: 30 min pre-incubation.
Sequence of HCV NS3/4A 1b protease WT (P26662 1658-1711): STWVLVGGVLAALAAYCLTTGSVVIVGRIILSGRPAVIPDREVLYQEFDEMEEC
Sequence of HCV NS3/4A 1b protease WT (P26662 1027-1208): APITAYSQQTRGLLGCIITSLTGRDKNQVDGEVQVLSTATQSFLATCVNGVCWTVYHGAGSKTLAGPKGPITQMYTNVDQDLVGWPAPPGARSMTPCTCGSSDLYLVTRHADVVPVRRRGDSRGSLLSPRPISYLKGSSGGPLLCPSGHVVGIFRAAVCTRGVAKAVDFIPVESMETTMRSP
The target of assay [4] is HCV NS3/4A 1b protease D168A (Hepatitis C virus genotype 1b, UniProt P26662, D1194A). Description: HCV Protease FRET Assay for mutated NS3/4A 1b enzyme (IC50). Type of assay: biochemical. The note with it: 30 min pre-incubation. From the text: 279, No. 17, pp 17508-17514.
Sequence of HCV NS3/4A 1b protease D168A (P26662 1027-1208 D1194A): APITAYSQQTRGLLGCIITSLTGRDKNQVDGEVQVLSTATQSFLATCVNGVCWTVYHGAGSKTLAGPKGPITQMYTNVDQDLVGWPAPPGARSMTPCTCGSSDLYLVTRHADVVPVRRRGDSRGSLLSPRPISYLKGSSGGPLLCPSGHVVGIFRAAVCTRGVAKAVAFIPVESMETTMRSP
Sequence of HCV NS3/4A 1b protease D168A (P26662 1658-1711 partner limits assumed): as the sequence (P26662 1658-1711) above
Another assay deals with HCV RNA replicon. Description: Replicon assay (luciferase, ET Huh7 cell line). The note with it: Hepatitis C virus, Huh-7, 72 h, read-out: EC50 replicon assay.
Another assay deals with HCV NS3/4A 1b protease (Hepatitis C virus genotype 1b, UniProt P26662). Description: biochemical.
Sequence of HCV NS3/4A 1b protease (P26662 1027-1208): as the sequence (P26662 1027-1208) above
Sequence of HCV NS3/4A 1b protease (P26662 1658-1711): as the sequence (P26662 1658-1711) above
The next assay concerns the target CSF1R (Homo sapiens, UniProt P07333). Briefly: CSF1R mass spectral analysis of tryptic digest. The assay is classed as binding. The note with it: 3 hrs at 10× excess, tryptic digest MALDI. As for the experimental part: Iodoacetamide was used as the alkylating agent after compound incubation. For tryptic digests, a 2 μl aliquot (0.09 μg/μl) was diluted with 10 μl of 0.1% TFA prior to micro C18 Zip Tipping directly onto the MALDI target using alpha cyano-4-hydroxy cinnamic acid as the matrix (5 mg/ml in 0.1% TFA:Acetonitrile 50:50).
For tryptic digests, the instrument was set in Reflectron mode with a pulsed extraction setting of 1800. Calibration was done using the Laser Biolabs Pep Mix standard (1046.54, 1296.69, 1672.92, 2093.09, 2465.20). For CID/PSD analysis the peptide was selected using cursors to set ion gate timing and fragmentation occurred at a laser power about 20% higher and He was used as the collision gas for CID. Calibration for fragments was done using the P14R fragmentation calibration for the Curved field Reflectron. Database searching of the tryptic digest of CSF identified it correctly. […] PSD analysis of this peptide signal (1160.50) gave enough fragments to allow for a database MS/MS ion search which verified the sequence of this peptide.

The mark [5] stands for this setting: 1 uM for 90 minutes, then washed free of compound.

Like-named read-outs stand apart in the source and are kept apart here.

One may read the IC50 as the concentration that inhibits the measured activity by half. Usually inhibition stands for the drop in the measured response relative to a control, in per cent. One may read the EC50 as the concentration giving half of the maximal effect.

T3 sequence (P10721 26-976): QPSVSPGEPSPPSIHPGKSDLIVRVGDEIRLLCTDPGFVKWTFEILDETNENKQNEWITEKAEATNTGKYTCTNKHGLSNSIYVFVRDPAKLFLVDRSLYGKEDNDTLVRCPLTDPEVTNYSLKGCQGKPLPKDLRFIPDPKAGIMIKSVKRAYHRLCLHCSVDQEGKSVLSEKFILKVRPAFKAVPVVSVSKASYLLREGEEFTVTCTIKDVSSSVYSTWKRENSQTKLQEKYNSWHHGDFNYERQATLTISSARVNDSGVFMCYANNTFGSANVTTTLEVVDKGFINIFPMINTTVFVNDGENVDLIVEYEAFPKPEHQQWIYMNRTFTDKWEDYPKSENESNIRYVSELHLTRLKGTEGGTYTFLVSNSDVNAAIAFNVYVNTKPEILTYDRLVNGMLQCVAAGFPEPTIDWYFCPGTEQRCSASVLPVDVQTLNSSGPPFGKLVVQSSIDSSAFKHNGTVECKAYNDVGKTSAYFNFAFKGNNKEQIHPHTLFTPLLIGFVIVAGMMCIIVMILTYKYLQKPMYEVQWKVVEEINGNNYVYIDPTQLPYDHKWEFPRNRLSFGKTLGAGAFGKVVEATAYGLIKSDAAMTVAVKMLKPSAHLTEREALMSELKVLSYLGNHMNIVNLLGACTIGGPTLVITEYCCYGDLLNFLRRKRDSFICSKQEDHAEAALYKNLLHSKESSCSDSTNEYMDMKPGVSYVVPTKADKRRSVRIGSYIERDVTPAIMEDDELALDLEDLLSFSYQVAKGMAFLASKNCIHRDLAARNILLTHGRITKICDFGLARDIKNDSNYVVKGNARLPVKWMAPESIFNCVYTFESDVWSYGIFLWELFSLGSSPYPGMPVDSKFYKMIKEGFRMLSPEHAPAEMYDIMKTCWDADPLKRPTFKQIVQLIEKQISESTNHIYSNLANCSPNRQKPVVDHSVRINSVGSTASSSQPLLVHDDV
T1 sequence (P10721 26-976 K642E): as the sequence (P10721 26-976) above, with K617E counted along it
Sequence of CSF1R (P07333 20-972): as the sequence (P07333 20-972) above
Description for HCV RNA replicon: The compounds were assayed to evaluate the antiviral activity and cytotoxicity of compounds using replicon-derived luciferase activity. This assay used the cell line ET (luc-ubi-neo/ET), which is a human Huh7 hepatoma cell line that contains an HCV RNA replicon with a stable luciferase (Luc) reporter and three cell culture-adaptive mutations.
The ET cell line was grown in Dulbecco's modified essential media (DMEM), 10% fetal bovine serum (FBS), 1% penicillin-streptomycin (pen-strep), 1% glutamine, 1% non essential amino acid, 400 μg/mL G418 in a 5% CO2 incubator at 37° C. All cell culture reagents were obtained from Invitrogen(Carlsbad). Cells were trypsinized (1% trypsin:EDTA) and plated out at 5×10^3 cells/well in white 96-well assay plates (Costar) dedicated to cell number (cytotoxicity) or antiviral activity assessments. Compounds were added at six 3-fold concentrations each and the assay was run in DMEM, 5% FBS, 1% pen-strep, 1% glutamine, 1% non essential amino acid. Human interferon alpha-2b (PBL Biolabs, New Brunswick, N.J.) was included in each run as a positive control compound. Cells were processed 72 hr post compound addition when the cells are still subconfluent. Antiviral activity was measured by analyzing replicon-derived luciferase activity using the Steady-Glo Luciferase Assay System (Promega, Madison, Wis.) according to manufacturer's instruction. The number of cells in each well was determined by Cell Titer Blue Assay (Promega).

Take `CNC(=O)c1cc(Oc2ccc(NC(=O)Nc3ccc(Cl)c(C(F)(F)F)c3)cc2)ccn1` [Sorafenib, sorafenib, reference compound]: at cKIT in GIST882 cells (setting [5]), the “inhibitory activity of ckit and downstream signaling after washout” value is recorded as “overcome”. Also, on cKIT in GIST882 cells, the cKIT autophosphorylation result is given as “inhibited” and the “downstream signaling of ERK” value is recorded as “inhibited”.

With `CCC(=O)Nc1cccc(Nc2cc(Nc3ccc(Oc4ccccc4)cc3)ncn2)c1` [Compound 9], the IC50 on Btk came to 8600 nM.

`C=CC(=O)Nc1ccc(C(=O)Nc2ccc(C)c(Nc3nccc(-c4cccnc4)n3)c2)cc1` [Compound 1, 4-acrylamido-N-(4-methyl-3-(4-(pyridin-3-yl)pyrimidin-2-ylamino)phenyl)benzamide]: the inhibition at 10 µM on CSF1R (FMS) (10 μM compound) was 72%. For the same compound, the inhibition at 1 µM at c-KIT [1] (read-out: % Inhibition of c-KIT) was 82%.

Turning to `Cc1ccc(C(=O)Nc2ccc(NC(=O)CCl)c(C(F)(F)F)c2)cc1Nc1nccc(-c2cccnc2)n1` [Compound 3], the “covalent modification of c-KIT (site or peptide)” value at c-KIT [2] was “Cys788 (major) and: Cys808 (minor)”.

As to `C=C[C@@H]1C[C@]1(NC(=O)[C@@H]1C[C@@H](Oc2cc(-c3ccccc3)nc3cc(OC)ccc23)CN1C(=O)CNC(=O)CC)C(=O)NS(=O)(=O)c1ccccc1` [Compound 11, reference compound], the IC50 was 165 nM in [3] and more than 3000 nM in assay [4]. Besides, the EC50 in the assay on HCV RNA replicon was more than 3000 nM.

`C=CC1C[C@]1(NC(=O)[C@@H]1C[C@@H](Oc2cc(-c3ccccc3)nc3cc(OC)ccc23)CN1C(=O)C(NC(=O)OC(C)(C)C)C(C)C)C(=O)NS(=O)(=O)c1ccccc1` (stereo partly shown) [Compound V-1, reference compound]: on HCV NS3/4A 1b protease, 0.4 nM corresponded to half-maximal inhibition (IC50).

As to `C=CC(=O)NC[C@H](NC(=O)OC(C)(C)C)C(=O)N1C[C@H](Oc2cc(-c3ccccc3)nc3cc(OC)ccc23)C[C@H]1C(=O)N[C@]1(C(=O)NS(=O)(=O)c2ccccc2)C[C@H]1C=C` [Compound 6, N-[(1,1-dimethylethoxy)carbonyl]-3-[(2-propenoyl)amino]-L-alanyl-(4R)-4-[(7-methoxy-2-phenyl-4-quinolinyl)oxy]-L-prolyl-1-amino-2-ethenyl-N-(phenylsulfonyl)-(1R,2S)-cyclopropanecarboxamide], the EC50 in the assay with HCV RNA replicon worked out at 174 nM.

`C=CC(=O)Nc1ccc(C(=O)Nc2ccc(C)c(Nc3nccc(-c4cccnc4)n3)c2)cc1C(F)(F)F` [Compound 2, 4-Acrylamido-N-(4-methyl-3-(4-pyridin-3-yl)pyrimidin-2-ylamino)phenyl-3-(trifluoromethyl)benzamide]: at CSF1R (FMS), the inhibition at 10 µM came out at 89%. On CSF1R, the “covalent modification of CSF1R (modified peptide)” value is “NCIHR”.

As for `C=CC(=O)NCC(=O)N1C[C@H](Oc2cc(-c3ccccc3)nc3cc(OC)ccc23)C[C@H]1C(=O)N[C@]1(C(=O)NS(=O)(=O)c2ccccc2)C[C@H]1C=C` [Compound 12, (2S,4R)-1-(2-acrylamidoacetyl)-4-(7-methoxy-2-phenylquinolin-4-yloxy)-N-((1R,2S)-1-(phenylsulfonylcarbamoyl)-2-vinylcyclopropyl)pyrrolidine-2-carboxamide], the IC50 was determined as 0.3 nM in [3] and 17 nM in assay [4]. The EC50 in the assay with HCV RNA replicon stood at 204 nM.

With `C=CC(=O)Nc1ccc(NC(=O)Nc2ccc(Oc3ccnc(C(=O)NC)c3)cc2)cc1C(F)(F)F` [Compound 7, 4-(4-(3-(4-Acrylamido-3-(trifluoromethyl)phenyl)ureido)phenoxy)-N-methylpicolinamide], at c-KIT [2], the “covalent modification of c-KIT (site or peptide)” value is reported as “NCIHR”. Besides, on cKIT in GIST882 cells (setting [5]), the “persistence of inhibition after washout” value is “at least 8 hours”. Moreover, on cKIT in GIST882 cells, the cKIT autophosphorylation entry is “inhibited” and the “downstream signaling of ERK” value was “inhibited”. In addition, at c-KIT [1] (inhibition of cKIT phosphorylation), the IC50 came to 31 nM.
